PMC5594551, “Heterogeneous drug penetrance of veliparib and carboplatin measured in triple negative breast tumors” (Breast Cancer Research : BCR, 2017)

Assays:
[1] = Carboplatin one-compartment plasma PK model in mice; assay type: in vivo, beige SCID mice
Method: The PK of carboplatin in mice was assessed using a one-compartment model with bolus intravenous injection.
e) Supplements of the PK-model development.

[2] = Veliparib spatial distribution by MALDI-MSI in TNBC xenograft tumor and muscle sections; assay type: in vivo, beige SCID mice
Method: Thirty-nine mice were euthanized approximately 3 h after the last dose of veliparib and 24 h after the last dose of carboplatin; two mice used in the DCE-MRI pilot were euthanized 1.5 h after single-dose administration of veliparib and carboplatin (Fig. 1). Bilateral xenograft tumors and liver and muscle (quadriceps) tissues were harvested. Tissues were cut into three pieces and either embedded in optimum cutting temperature (OCT) formulation or were directly snap frozen in liquid-nitrogen-cooled isopentane and stored at − 80 °C until analysis. […] A separate fresh-frozen portion of each tissue per animal was ground for quantification of veliparib and carboplatin by LC-MS. […]
Heterogeneity of drug distribution of veliparib in the tissues evaluated by MALDI-MSI was assessed by comparing the relative standard deviation in the whole tissue of muscle and tumor cells, and by comparing the mean pixel intensity of each immunohistochemically (IHC)-defined region of interest capturing the whole tumor region, and regions of cellularity/necrosis using one-way ANOVA. […]
By spiking different concentrations of veliparib on placebo treated mouse TNBC xenograft tissues, a rough estimate of the detection range of veliparib was determined to be 100 fmol-100 pmol absolute drug amount, Figure S2 left) with saturation of the signal occurring above 1 nmol/ μL. […]

[3] = test system: MDA-MB-231; parameters: method as in PMID 21633166, PMID 21707865; details: ref [23], [25]; cited from earlier work
[4] = test system: HCC70; details: ref [23]; cited from earlier work
[5] = test system: metastatic BRCA-mutated breast cancer; parameters: method as in ref [52] = [52]; 52. Somlo G Phase II trial of single agent PARP inhibitor ABT-888 (veliparib [vel]) followed by postprogression therapy of vel with carboplatin (carb) in patients (pts) with stage BRCA-associated meta; details: veliparib 400 mg BID until disease progression; ref [52]; cited from earlier work
[6] = test system: PARP1; details: read-out: IC50 for PARP1 inhibition; ref [3], [31]; cited from earlier work

Row | SMILES | Clearance and volume of distribution of carboplatin with co-dosed veliparib (drug-drug interaction) ([1]; 0, 20 or 60 mg/kg veliparib doses) | Half-life (t1/2) ([1]; beige SCID mice plasma) | CL ([1]; mice plasma) | Interindividual variability on CL ([1]; mice plasma) | Vd ([1]; mice plasma) | Ion intensity tumor/muscle (RSE %) ([2]; cellular tumors (ROI)) | Ion intensity tumor/muscle (RSE %) ([2]; necrotic tumors (ROI)) | Sensitivity in vitro [3] | Sensitivity in vitro [4] | Patients with partial response [5] | IC50 [6]
1 | N.N.O=C([O-])C1(C(=O)[O-])CCC1.[Pt+2] [carboplatin] | not significantly different | 21 min | 34.2 mL/h | 6% | 17.5 mL |  |  |  |  |  | 
2 | C[C@]1(c2nc3c(C(N)=O)cccc3[nH]2)CCCN1 [veliparib] |  |  |  |  |  | 1.01 (85%) | 1.63 (70%) | sensitivity | insensitive | 20% | […]
